What was measured:
Assay type in all cases: physicochemical
[1] = DVS (Dynamic Vapor Sorption) moisture sorption/desorption, hygroscopicity classification
Experimental: DVS (Dynamic Vapor Sorption): Around 10-20 mg of samples were used to test its moisture sorption/desorption profiles at 25° C. under 0%˜95%˜0% relative humidity (RH) cycle using dm/dt: 0.01%/min equilibrium and a measurement step of 5% RH.
Hygroscopicity Classification: Typical %-moisture gain as a function of increased RH was determined by DVS. Samples went through a dynamic test isothermally at 25° C. The test was divided into 2 processes, one was absorption process, the other was desorption process. RH ranged from 0% to 95% with 5% RH for each step, and when dm/dt<=0.01%, it was assumed the water sorption/desorption equilibrium is reached.

[2] = Solubility in SGF, FaSSIF, FeSSIF, 0.1M HCl, pH 4.5 and pH 6.8 aqueous at 25° C. (HPLC); settings: for Solubility conc.(mg/ml): solubility of salts transformed to freebase; for Final pH: solubility test
Experimental: Solubility: Excess drug substance was equilibrated with SGF (Simulated Gastric Fluid), FaSSIF (Simulated Small Intestinal Fluid under Fasted state), FeSSIF (Simulated Small Intestinal Fluid under Fed state), 0.1M HCl, pH 4.5 aqueous, and pH 6.8 aqueous at 25° C. After stirring for 20˜24 h, each sample was filtered, diluted appropriately and analyzed by HPLC. The experiment was terminated once a solubility target of 5 mg/mL was reached.

[3] = Solid stability at 40° C./0% RH (closed) and 40° C./75% RH (open), HPLC; settings: for 0 day % remaining / 7 day % remaining / 21 day % remaining: solid
Experimental: (§1) Solid stability: 5 mg of 2a was weighed into scintillation vials sealed properly and stored at 40° C./0% RH(closed), 40° C./75% RH(open) under dark conditions to avoid the effect of light on stability. Samples were collected at day 0, 5 and 10 and analyzed by HPLC.
Solid stability: 5 mg of compound was weighed into vials sealed properly and stored at 40° C./0% RH (closed), 40° C./75% RH (open) under dark conditions to avoid the effect of light. Samples were analyzed by HPLC at days 0, 7, and 21.
as §1, with “stability of compound 1a:” for “stability:”, “compound were accurately” for “of 2a was”, “condition” for “conditions”, “should be” for “were”, “10 days” for “10”

[4] = Solution stability in 0.1 N HCl, pH 4.5 buffer and pH 6.8 buffer at 25° C. and 37° C., HPLC
Experimental: Solution stability: A stock solution of compound (1.0 mg/mL) in MeOH was diluted with 0.1 N HCl, pH 4.5 buffer (acetate) and pH 6.8 buffer to reach constant ionic strength of 0.15 M and the same final concentration (50 μg/mL, 40% MeOH).
A stock solution of 1b and 3b (1.0 mg/mL) in MeOH was diluted with pH 6.8 buffer to reach constant ionic strength of 0.15M and the same final concentration (25 μg/mL, 40% […]).
The solutions were stored at 25° C. and 37° C.

COc1ccc2c(c1)CCN1Cc3c(ccc(OC)c3OS(=O)(=O)c3cccc(F)c3)C[C@@H]21 [Compound 3b]
Hygroscopicity classification by DVS ([1]; 25 °C): hygroscopic
Change In Mass (%) - ref, Desorption ([1]; Cycle 1, target RH 0.0%): 0.05%
Change In Mass (%) - ref, Sorption ([1]; Cycle 1, target RH 0.0%): 0.00%
Change In Mass (%) - ref, Desorption ([1]; Cycle 1, target RH 5.0%): 0.26%
Change In Mass (%) - ref, Hysteresis ([1]; Cycle 1, target RH 5.0%): 0.23%
Change In Mass (%) - ref, Sorption ([1]; Cycle 1, target RH 5.0%): 0.03%
Change In Mass (%) - ref, Desorption ([1]; Cycle 1, target RH 10.0%): 0.46%
Change In Mass (%) - ref, Hysteresis ([1]; Cycle 1, target RH 10.0%): 0.18%
Change In Mass (%) - ref, Sorption ([1]; Cycle 1, target RH 10.0%): 0.28%
Change In Mass (%) - ref, Desorption ([1]; Cycle 1, target RH 15.0%): 0.61%
Change In Mass (%) - ref, Hysteresis ([1]; Cycle 1, target RH 15.0%): 0.29%
Change In Mass (%) - ref, Sorption ([1]; Cycle 1, target RH 15.0%): 0.32%
Change In Mass (%) - ref, Desorption ([1]; Cycle 1, target RH 20.0%): 4.13%
Change In Mass (%) - ref, Hysteresis ([1]; Cycle 1, target RH 20.0%): 3.79%
Change In Mass (%) - ref, Sorption ([1]; Cycle 1, target RH 20.0%): 0.34%
Change In Mass (%) - ref, Desorption ([1]; Cycle 1, target RH 25.0%): 8.89%
Change In Mass (%) - ref, Hysteresis ([1]; Cycle 1, target RH 25.0%): 8.50%
Change In Mass (%) - ref, Sorption ([1]; Cycle 1, target RH 25.0%): 0.39%
Change In Mass (%) - ref, Desorption ([1]; Cycle 1, target RH 30.0%): 9.08%
Change In Mass (%) - ref, Hysteresis ([1]; Cycle 1, target RH 30.0%): 1.62%
Change In Mass (%) - ref, Sorption ([1]; Cycle 1, target RH 30.0%): 7.46%
Change In Mass (%) - ref, Desorption ([1]; Cycle 1, target RH 35.0%): 9.14%
Change In Mass (%) - ref, Hysteresis ([1]; Cycle 1, target RH 35.0%): 0.21%
Change In Mass (%) - ref, Sorption ([1]; Cycle 1, target RH 35.0%): 8.93%
Change In Mass (%) - ref, Desorption ([1]; Cycle 1, target RH 40.0%): 9.18%
Change In Mass (%) - ref, Hysteresis ([1]; Cycle 1, target RH 40.0%): 0.13%
Change In Mass (%) - ref, Sorption ([1]; Cycle 1, target RH 40.0%): 9.06%
Change In Mass (%) - ref, Desorption ([1]; Cycle 1, target RH 45.0%): 9.26%
Change In Mass (%) - ref, Hysteresis ([1]; Cycle 1, target RH 45.0%): 0.16%
Change In Mass (%) - ref, Sorption ([1]; Cycle 1, target RH 45.0%): 9.10%
Change In Mass (%) - ref, Desorption ([1]; Cycle 1, target RH 50.0%): 10.73%
Change In Mass (%) - ref, Hysteresis ([1]; Cycle 1, target RH 50.0%): 1.59%
Change In Mass (%) - ref, Sorption ([1]; Cycle 1, target RH 50.0%): 9.14%
Change In Mass (%) - ref, Desorption ([1]; Cycle 1, target RH 55.0%): 10.99%
Change In Mass (%) - ref, Hysteresis ([1]; Cycle 1, target RH 55.0%): 1.77%
Change In Mass (%) - ref, Sorption ([1]; Cycle 1, target RH 55.0%): 9.22%
Change In Mass (%) - ref, Desorption ([1]; Cycle 1, target RH 60.0%): 11.23%
Change In Mass (%) - ref, Hysteresis ([1]; Cycle 1, target RH 60.0%): 1.82%
Change In Mass (%) - ref, Sorption ([1]; Cycle 1, target RH 60.0%): 9.41%
Change In Mass (%) - ref, Desorption ([1]; Cycle 1, target RH 65.0%): 11.50%
Change In Mass (%) - ref, Hysteresis ([1]; Cycle 1, target RH 65.0%): 0.36%
Change In Mass (%) - ref, Sorption ([1]; Cycle 1, target RH 65.0%): 11.14%
Change In Mass (%) - ref, Desorption ([1]; Cycle 1, target RH 70.0%): 11.84%
Change In Mass (%) - ref, Hysteresis ([1]; Cycle 1, target RH 70.0%): 0.04%
Change In Mass (%) - ref, Sorption ([1]; Cycle 1, target RH 70.0%): 11.79%
Change In Mass (%) - ref, Desorption ([1]; Cycle 1, target RH 75.0%): 12.27%
Change In Mass (%) - ref, Hysteresis ([1]; Cycle 1, target RH 75.0%): 0.04%
Change In Mass (%) - ref, Sorption ([1]; Cycle 1, target RH 75.0%): 12.23%
Change In Mass (%) - ref, Desorption ([1]; Cycle 1, target RH 80.0%): 12.85%
Change In Mass (%) - ref, Hysteresis ([1]; Cycle 1, target RH 80.0%): 0.05%
Change In Mass (%) - ref, Sorption ([1]; Cycle 1, target RH 80.0%): 12.79%
Change In Mass (%) - ref, Desorption ([1]; Cycle 1, target RH 85.0%): 13.71%
Change In Mass (%) - ref, Hysteresis ([1]; Cycle 1, target RH 85.0%): 0.08%
Change In Mass (%) - ref, Sorption ([1]; Cycle 1, target RH 85.0%): 13.64%
Change In Mass (%) - ref, Desorption ([1]; Cycle 1, target RH 90.0%): 15.23%
Change In Mass (%) - ref, Hysteresis ([1]; Cycle 1, target RH 90.0%): 0.15%
Change In Mass (%) - ref, Sorption ([1]; Cycle 1, target RH 90.0%): 15.08%
Change In Mass (%) - ref, Desorption ([1]; Cycle 1, target RH 95.0%): 17.97%
Change In Mass (%) - ref, Sorption ([1]; Cycle 1, target RH 95.0%): 17.97%
moisture picked up (DVS) ([1]; at 80% RH, 25 °C): ~13%
moisture picked up (DVS) ([1]; at 95% RH, 25 °C): ~18%
Solubility conc.(mg/ml) ([2]; 0.1N HCL): 0.261 mg/mL
Solubility conc.(mg/ml) ([2]; FaSSIF): 0.009 mg/mL
Solubility conc.(mg/ml) ([2]; FeSSIF): 0.010 mg/mL
Solubility conc.(mg/ml) ([2]; SGF): 1.828 mg/mL
Solubility conc.(mg/ml) ([2]; Water): 0.145 mg/mL
Solubility conc.(mg/ml) ([2]; pH 4.5 Acetate Buffer (USP)): 0.012 mg/mL
Solubility conc.(mg/ml) ([2]; pH 6.8 Phosphate Buffer (USP)): 0.014 mg/mL
Final pH ([2]; 0.1N HCL): 1.56
Final pH ([2]; FaSSIF): 6.04
Final pH ([2]; FeSSIF): 4.87
Final pH ([2]; SGF): 1.55
Final pH ([2]; Water): 2.71
Final pH ([2]; pH 4.5 Acetate Buffer (USP)): 4.42
Final pH ([2]; pH 6.8 Phosphate Buffer (USP)): 6.64
Solid-state stability (HPLC) ([3]; 40° C./0% RH (closed) and 40° C./75% RH (open), dark, up to 3 weeks): substantially stable
0 day % remaining ([3]; 40° C. (0% RH, closed)): 100.0%
7 day % remaining ([3]; 40° C. (0% RH, closed)): 99.1%
21 day % remaining ([3]; 40° C. (0% RH, closed)): 99.2%
0 day % remaining ([3]; 40° C./75% RH (open)): 100.0%
7 day % remaining ([3]; 40° C./75% RH (open)): 100.3%
21 day % remaining ([3]; 40° C./75% RH (open)): 99.8%
Remaining % ([4]; 25° C., 0.1N HCL, 0 h, 50 μg/mL, 40% MeOH): 100.00%
Remaining % ([4]; 25° C., 0.1N HCL, 3 h, 50 μg/mL, 40% MeOH): 100.31%
Remaining % ([4]; 25° C., 0.1N HCL, 24 h, 50 μg/mL, 40% MeOH): 100.62%
Solution stability ([4]; 25° C., 24 h, 0.1 N HCl, pH 4.5 buffer and pH 6.8 buffer): stable
Remaining % ([4]; 25° C., pH 4.5, 0 h, 50 μg/mL, 40% MeOH): 100.00%
Remaining % ([4]; 25° C., pH 4.5, 3 h, 50 μg/mL, 40% MeOH): 100.00%
Remaining % ([4]; 25° C., pH 4.5, 24 h, 50 μg/mL, 40% MeOH): 100.08%
Remaining % ([4]; 25° C., pH 6.8*, 0 h, final conc. 25 μg/mL with 40% DMSO): 100.00%
Remaining % ([4]; 25° C., pH 6.8*, 3 h, final conc. 25 μg/mL with 40% DMSO): 99.64%
Remaining % ([4]; 25° C., pH 6.8*, 24 h, final conc. 25 μg/mL with 40% DMSO): 99.64%
Remaining % ([4]; 37° C., 0.1N HCL, 0 h, 50 μg/mL, 40% MeOH): 100.00%
Remaining % ([4]; 37° C., 0.1N HCL, 3 h, 50 μg/mL, 40% MeOH): 99.92%
Remaining % ([4]; 37° C., 0.1N HCL, 24 h, 50 μg/mL, 40% MeOH): 100.92%
Solution stability ([4]; 37° C., 24 h, 0.1N HCl, pH 4.5 buffer): stable
Solution stability ([4]; 37° C., 24 h, pH 6.8 buffer): decomposed
Remaining % ([4]; 37° C., pH 4.5, 0 h, 50 μg/mL, 40% MeOH): 100.00%
Remaining % ([4]; 37° C., pH 4.5, 3 h, 50 μg/mL, 40% MeOH): 100.39%
Remaining % ([4]; 37° C., pH 4.5, 24 h, 50 μg/mL, 40% MeOH): 100.47%
Remaining % ([4]; 37° C., pH 6.8*, 0 h, final conc. 25 μg/mL with 40% DMSO): 100.00%
Remaining % ([4]; 37° C., pH 6.8*, 3 h, final conc. 25 μg/mL with 40% DMSO): 99.22%
Remaining % ([4]; 37° C., pH 6.8*, 24 h, final conc. 25 μg/mL with 40% DMSO): 85.89%
